Measured values as given in patent US20110165173A1, “THERAPEUTIC AGENT AND DETECTION REAGENT FOR ARTERIOSCLEROTIC DISEASE WHICH TARGETS FOR SALUSIN” (PROTEINEXPRESS CO., LTD., priority 2007, published 2011).

What was measured:
[1] = system: macrophages of apoE-deficient mice; assay: Foaming (oxidized LDL-induced cholesterol ester accumulation) of macrophages collected from treated apoE-deficient mice; format: in vivo; details: 0.6 nmol/kg/h, four weeks
Experimental: 13-week-old male apoE-deficient mice (72 mice) were divided into the following 6 groups: (i) physiological salt saline (control); (ii) salusin-α (0.6 nmol/kg/h); (iii) salusin-β (0.6 nmol/kg/h); (iv) salusin-α (0.6 nmol/kg/h)+anti-salusin-α serum (1.4 μg/kg/h); (v) salusin-β (0.6 nmol/kg/h)+anti-salusin-β serum (1.4 μg/kg/h); and (vi) anti-salusin-β serum (1.4 μg/kg/h). The mice were subjected to continuous subcutaneous administration with the use of an osmotic mini-pump for 4 to 8 weeks. The osmotic mini-pump and the solution contained therein were changed every week.
On Day 4 after intraperitoneal administration of thioglycollate, transudatory macrophages were collected and cultured with an RPMI1640 solution containing 10% bovine fetal serum. Oxidized LDL (10 μg/mL) and [^3H] oleic acid (0.1 mM) were added to the culture solution. After 13 hours, the radioactivity of intracellularly accumulated cholesterol [^3H] oleic acid was assayed for evaluation of foaming of macrophages.

[2] = system: ACAT-1 mRNA expression; assay: ACAT-1 mRNA expression in human monocyte-derived macrophages (real time RT-PCR); format: cell-based; details: 0.6 nM during 7-day culture
Experimental: RNA extraction was performed using a TRIzol reagent (LIFE TECHNOLOGIES).
Cells were cultured for 7 days in a medium and then the medium was removed. The cells were washed 3 times with PBS. PBS was sufficiently removed therefrom and TRIzol (1 mL) was added thereto for cell lysis. The cell extraction solution was pippeted in and out 5 times and then transferred to a new Eppendorf tube. Then, the tube was left at room temperature for 5 minutes. Chloroform (200 μL) was added thereto, followed by strong shaking for 15 seconds. The tube was further left for 2 to 3 minutes and centrifuged at 12,000 rpm for 15 minutes (Himac CF15D2 high-speed micro refrigerated centrifuge; Hitach, Ltd.). The top layer was transferred to a new Eppendorf tube and isopropanol (500 μL) was added thereto, followed by end-over-end mixing. […] The concentration of the thus obtained RNA solution was obtained by absorbance determination at 260 nm. […]
Next, the RNA expression of ACAT-1 mRNA was analyzed by the real time RT-PCR method.
Primer sequences were determined Primer Express Version 1.0 (PE Biosystems) with the use of the respective human mRNA sequences shown below. […]
Real time PCR was performed to quantify the obtained cDNA by the GeneAmp 5700 Sequence Detection System (Applied Biosystems Japan) with the use of qPCR MasterMix SYBR Greenl (Eurogentec). […]

[3] = system: ACAT-1 protein expression; assay: ACAT-1 protein expression in cultured human monocyte-derived macrophages after differentiation (Western blotting); format: cell-based; details: cultured 3 more days
Experimental: For ACAT-1 protein detection, an anti-human ACAT-1 polyclonal antibody (DM10 donated from Dr. Chang, Dartmouth Medical School) [Chang CCY et al., J Biol Chem. 1995; 270: 29532-29540] prepared by immunizing a rabbit was used as a primary antibody (final concentration: 0.5 μg/mL) for a reaction on a transfer membrane at room temperature for 1 hour. The transfer membrane was washed with PBS-0.1% Tween 20, followed by a reaction with a secondary antibody (anti-rabbit IgG antibody: anti-rabbit IgG donkey antibody conjugated with horseradish peroxidase (HRP) (GE Healthcare Bio-Science)) at room temperature for 1 hour. For a secondary antibody, a stock solution (0.5 μL) was diluted 10,000-fold with PBS-0.1% Tween 20 (5 mL), and the resultant was used. Washing was carried out with PBS-0.1% Tween 20, followed by ACAT-1 protein detection with the use of Lumi-Light Plus (PerkinElmer Life Sciences).
In each of the experiments in Examples 1 to 6, salusin-α and salusin-β were added in the phase of differentiation of cultured human monocytes into macrophages and cells obtained on Day 7 of culture were used to examine the effects of salusin-α and salusin-13. In this Example, it was examined whether salusin-α and salusin-β would have similar effects on ACAT-1 protein expression in macrophages obtained after differentiation. […]

| Substance | foaming of macrophages due to oxidized LDL relative to control ([1]; P<0.01) | ACAT-1 mRNA expression level relative to control [2] [times] | ACAT-1 protein expression level relative to control ([3]; 0.6 nM added on Day 7 after differentiation) [times] | foaming of macrophages due to oxidized LDL (intracellular cholesterol ester accumulation), fraction of control ([1]; P<0.05) | ACAT-1 mRNA expression level, percent of that of the control [2] [%] | ACAT-1 protein expression level, percent of that of the control ([3]; 1.0 nM added on Day 7 after differentiation) [%] |
| --- | --- | --- | --- | --- | --- | --- |
| salusin-β: peptide (SEQ ID NO: 3) comprising 20 amino acid residues, generated by processing from preprosalusin (AIFIFIRWLLKLGHHGRAPP; listed as Homo sapiens) [reference compound] | approximately 2 times | 1.6 | 2.2 | – | – | – |
| salusin-α: peptide (SEQ ID NO: 1) comprising 28 amino acid residues, generated by processing from preprosalusin (SGALPPAPAAPRPALRAQRAGPAGPGAK; listed as Homo sapiens) | – | – | – | approximately ¼ | 80 | 60 |
